ChEMBL document CHEMBL1155642, “In vitro antiplasmodial, antiamoebic, and cytotoxic activities of some monomeric isoquinoline alkaloids” (J Nat Prod, 2000)
Where a name gives a salt, the structure may show the parent alone. Activity calls are given as the source filed them. The calls are words filed in the database; no cut-off is given here.

Columns and labels:
[1] = system: Plasmodium falciparum; experiment: Antiplasmodial activity against multi drug-resistant Plasmodium falciparum K1 in erythrocytes by [3H]hypoxanthine uptake; assay type: functional, organism-based
[2] = system: Entamoeba histolytica; experiment: Antiamoebic activity against Entamoeba histolytica NIH 200 after 72 hrs by microdilution technique; assay type: functional, organism-based; settings: NIH 200, 72 h
[3] = system: KB; experiment: Cytotoxicity against human KB cells after 72 hrs; assay type: functional, cell-based
[4] = system: Entamoeba histolytica; experiment: Antiamoebic activity against Entamoeba histolytica NIH 200 in guinea pig at 2 mg/kg, iv; assay type: functional, organism-based; design: dose 2 mg/kg
[5] = system: Entamoeba histolytica; experiment: Antiamoebic activity against Entamoeba histolytica NIH 200 in guinea pig at 3 mg/kg, po; assay type: functional, organism-based; design: dose 3 mg/kg

| SMILES | IC50 [1] | IC50 [2] | IC50 [3] | Activity [4] | Activity [5] |
| --- | --- | --- | --- | --- | --- |
| COc1cc2c3c(c1O)-c1c(ccc(OC)c1OC)C[C@@H]3N(C)CC2 [CORYDINE] | 22.3 µM | 90.6 µM | > 733 µM | – | – |
| COc1ccc2c(c1O)-c1c(OC)c(OC)cc3c1[C@H](C2)N(C)CC3 [ISOCORYDINE] | 37 µM | > 147 µM | > 733 µM | – | – |
| COc1ccc2c(c1O)-c1c(O)c(OC)cc3c1[C@H](C2)[N+](C)(C)CC3 [MAGNOFLORINE IODIDE] | > 107 µM | 111 µM | > 533 µM | – | – |
| CC[C@H]1CN2CCc3cc(OC)c(OC)cc3[C@@H]2C[C@@H]1C[C@H]1NCCc2cc(OC)c(OC)cc21 [EMETINE HYDROCHLORIDE] | – | 2.23 µM | – | – | – |
| COC1=C[C@@H]2[C@@H]3Cc4ccc(OC)c(O)c4[C@]2(CCN3C)CC1=O [SINOMENINE] | > 152 µM | 56.2 µM | > 759 µM | – | – |
| COc1cc2c3c(c1O)-c1c(ccc(OC)c1OC)C[C@@H]3NCC2 [NORCORYDINE] | 3.08 µM | 76.4 µM | > 733 µM | – | – |
| COc1cc([C@@H]2c3cc4c(cc3[C@H](O)[C@H]3COC(=O)[C@H]23)OCO4)cc(OC)c1OC [PODOFILOX] | – | – | 0.008 µM | – | – |
| COc1cc2c(cc1OC)-c1c3c(c(OC)c4c1[C@H](C2)N(C)CC4)OCO3 [OCOTEINE] | 34.8 µM | 51.2 µM | 74.3 µM | – | – |
| COC1=C[C@]23CCN(C)[C@H](Cc4cc(OC)c(OC)cc42)C3=CC1=O [O-METHYLFLAVINANTINE] | 207 µM | 73.4 µM | > 734 µM | – | – |
| COc1ccc2c(c1OC)-c1c(OC)c(OC)cc3c1[C@H](C2)NCC3 [CATALPIFOLINE] | 24.1 µM | 147 µM | > 733 µM | – | – |
| COc1ccc2c(c1OC)[C@]13CCC(=O)[C@]4(O)O[C@H]2C[C@]14N(C)CC3 [METAPHANINE HYDROBROMIDE] | > 117 µM | 58.6 µM | > 586 µM | – | – |
| COc1cc2c(cc1O)CC[n+]1cc3cc(OC)c(OC)cc3cc1-2 [DEHYDRODISCRETINE CHLORIDE] | 0.639 µM | 66.9 µM | > 335 µM | – | – |
| COc1cc2c(cc1OC)-c1c3c(c(OC)c4ccnc(c14)C2=O)OCO3 [THALICMININE] | 16.2 µM | 75.1 µM | > 685 µM | – | – |
| COc1c(O)ccc2cc3[n+](cc12)CCc1cc2c(cc1-3)OCO2 [THALIFENDINE] | 7.91 µM | 116 µM | > 699 µM | – | – |
| COc1cc2c(cc1O)-c1cc3ccc(OC)c(OC)c3c[n+]1CC2 [COLUMBAMINE CHLORIDE] | 1.92 µM | 156 µM | 77.9 µM | – | – |
| COC1=C[C@]23CCN(C)[C@H](Cc4ccc(OC)c(O)c42)C3=CC1=O [SALUTARIDINE] | > 95 µM | 76.4 µM | > 764 µM | – | – |
| COc1ccc2cc3[n+](cc2c1OC)CCc1cc2c(cc1-3)OCO2 [BERBERINE CHLORIDE] | 0.968 µM | 111 µM | 7.32 µM | Active | Active |
| COc1ccc2c(c1OC)CN1CCc3cc4c(cc3[C@@H]1C2)OCO4 [CANADINE] | > 147 µM | 126 µM | > 734 µM | – | – |
| COc1cc2c(cc1O)CC[n+]1cc3c(OC)c(OC)ccc3cc1-2 [JATRORRHIZINE CHLORIDE] | 3.15 µM | 82.7 µM | > 335 µM | – | – |
| COc1cc2cc3c4c(c(OC)c5c(c4c2cc1OC)OCO5)CCN3C [DEHYDROOCOTEINE] | 5.78 µM | 136 µM | > 341 µM | – | – |
| COc1ccc2c(c1OC)CN(C)CCc1cc3c(cc1C(=O)C2)OCO3 [ALLOCRYPTOPINE] | 5.08 µM | 135 µM | > 338 µM | – | – |
